Experimental data: patent US9796697B2, “Tricyclic inhibitors of HIF-2-alpha and uses thereof” (Peloton Therapeutics, Inc., priority 2015, dated 2017)
pEC50: −log10 of the molar value.

Assays:
[1] = target: T1, HIF-2α HIS TAG-PASB Domain (Homo sapiens, UniProt Q99814); assay: HIF-2α Scintillation Proximity Assay (SPA); assay type: binding; conditions: displacement of tritiated probe N-(3-Chlorophenyl-4,6-t2)-4-nitrobenzo[c][1,2,5]oxadiazol-5-amine from HIF-2α PASB domain
T1 construct: 100 nM HIF-2α HIS TAG-PASB Domain
T1 sequence (Q99814 239-348): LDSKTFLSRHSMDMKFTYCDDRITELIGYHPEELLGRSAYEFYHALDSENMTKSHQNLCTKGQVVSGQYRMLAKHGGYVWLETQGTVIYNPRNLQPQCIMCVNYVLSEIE
Protocol: Example 8: HIF-2α Scintillation Proximity Assay (SPA)
The total assay volume was about 100 μL in the following configuration: 2 μL compound in 100% DMSO, 88 μL buffer with protein and probe and 10 μL of SPA beads. The compound was diluted in a master plate consisting of a 10-point dose response with a 3-fold compound dilution from 100 μM to 5 nM. Assays were run on a 96-well plate in which one column, designated as the high signal control, contained DMSO with no compound and another column, designated as the low signal control, contained no protein. Prior to plating out of compound, a buffer solution, consisting of 25 mM TRIS pH 7.5 (Sigma), 150 mM NaCl (Sigma), 15% Glycerol (Sigma), 0.15% BSA (Sigma), 0.001% Tween-20 (Sigma), 150 nM N-(3-Chlorophenyl-4,6-t2)-4-nitrobenzo[c][1,2,5]oxadiazol-5-amine and 100 nM HIF-2α HIS TAG-PASB Domain, was made and allowed to equilibrate for 30 minutes. Compounds that were to be tested were then plated in to a 96-well white clear bottom Isoplate-96 SPA plate (Perkin Elmer). To the compounds was added 88 μL of the buffer solution, then the plate covered with a plastic cover and aluminum foil, placed onto a shaker and equilibrated for 1 hour. After equilibration, 10 μL of a 2 mg/mL solution of YSi Cu His tagged SPA beads (Perkin Elmer) were then added to each well of the plate, covered and equilibrated for another 2 hours. The plates were then removed from the shaker, placed into a 1450 LSC and luminescence counter MicroBeta Trilux (Perkin Elmer) to measure the extent of probe displacement. The percent inhibition was determined and IC50 values were calculated using the Dotmatics system based on the following equation: % inhibition=[(high control−sample)/(high control−low control)]×100.

[2] = test system: 786-O-Hif-Luc cells; assay: Luciferase Assay; assay type: cell-based; conditions: HIF responsive element luciferase reporter, about 24 hours
Protocol: Example 10: Luciferase Assay
786-O-Hif-Luc single clone cells were obtained by infecting 786-0 cells (ATCC® CRL-1932™) with commercial lentivirus that delivers a luciferase gene driven by multiple HIF responsive elements (Cignal Lenti HIF Reporter (luc): CLS-007L, Qiagen) at Multiplicity of Infection (MOI) of 25 for 24 hours. The cells were replenished with fresh medium (Dulbecco's Modified Eagle's Medium (DMEM, D5796, Sigma) supplemented with 10% FBS (F6178, Sigma), 100 units penicillin and 100 μg streptomycin/mL (P4333, Sigma)) for another 24 hours. A pool of infected cells were then selected against 2 μg/mL of puromycin (P8833, Sigma) for 10 days followed by limited dilution to select single clones. […] For the luciferase assay, about 7500 786-O-Hif-Luc cells in 90 μL growth medium were seeded into each well of a 96-well white opaque plate (08-771-26, Fisher scientific) a day before treatment with the layout presented in FIG. 2.
On treatment day, serial dilutions of 10× compound stocks were made in growth medium from 500×DMSO stocks, and 10 μL, of the 10× stocks were added to each well to make final concentrations as follows GAM): 20, 6.67, […], 0.74, 0.25, 0.08, 0.027, 0.009, 0.003, 0.001, and 0. Each concentration was tested in triplicate. After about 24 hours, luciferase activity was determined using ONE-Glo Luciferase Assay Reagent (E6110, Promega) following the manufacturer's recommended procedure. EC50 were calculated using Dotmatics software.

[3] = test system: 786-O cells; assay: VEGF ELISA Assay; assay type: cell-based; conditions: Homo sapiens, 786-0; VEGF concentration in culture medium of 786-O cells
Protocol: Example 9: VEGF ELISA Assay
About 7500 786-O cells in 180 μL of growth medium were seeded into each well of a 96-well, white, clear bottom plate (07-200-566, Fisher Scientific) on day one in the layout presented in FIG. 1.
Four hours later, serial dilutions of 10× compound stocks were made in growth medium from 500×DMSO stocks, and 20 μL of those 10× stocks were added to each well to make final concentrations as follows (μM): 20, 6.67, 2.22, 0.74, 0.25, 0.082, 0.027, 0.009, 0.003, 0.001, and 0. Each concentration was plated in duplicate. About 20 hours later, medium was removed by suction and each well was supplied with 180 μL of growth medium. About 20 μl freshly-made 10× compound stocks were added to each well. […] The EC50 was calculated by GraphPad Prism using the dose-response-inhibition (four parameter) equation. The cell-seeded plate was then subjected to CellTiter-Glo luminescence cell viability assay (Promega) by adding 50 μL of Celltiter Glo reagent into each well and shaking the plate for 8 minutes at 550 rpm (Thermomixer R, Eppendorf) then the luminescence signal immediately read in a plate reader (3 second delay, 0.5 second/well integration time, Synergy 2 multi Detection Microplate reader).

| Structure (SMILES) | pEC50 [1] | pEC50 [2] | pEC50 [3] |
| --- | --- | --- | --- |
| N#Cc1cc(F)cc(Oc2ccc3c4c2C(F)CC4(F)CS3(=O)=O)c1 (centres unmarked) [Compound 1] | < 6.00 | – | – |
| N#Cc1cncc(Oc2ccc3c4c2C(F)CC4(F)C(F)(F)S3(=O)=O)c1 (centres unmarked) [Compound 2] | < 6.00 | – | – |
| C=C1CC2(N)c3c(ccc(Oc4cc(F)cc(C#N)c4)c31)S(=O)(=O)C2(F)F (centres unmarked) [Compound 3, 3-((2a-amino-2,2-difluoro-4-methylene-1,1-dioxido-2,2a,3,4-tetrahydroindeno[7,1-bc]thiophen-5-yl)oxy)-5-fluorobenzonitrile] | 6.60 to 7.30 | 6.00 to 6.60 | – |
| N#Cc1cc(F)cc(Oc2ccc3c4c2CCC4(O)C(F)(F)S3(=O)=O)c1 (centres unmarked) [Compound 4] | 6.60 to 7.30 | 6.60 to 7.30 | – |
| N#Cc1cc(F)cc(Oc2ccc3c4c2C(F)C(F)C4(O)CS3(=O)=O)c1 (centres unmarked) [Compound 5] | < 6.00 | < 6.00 | – |
| N#Cc1cc(F)cc(Oc2ccc3c4c2C(F)CC4(O)C(F)(F)S3(=O)=O)c1 (centres unmarked) [Compound 6, 3-fluoro-5-((2,2,4-trifluoro-2a-hydroxy-1,1-dioxido-2,2a,3,4-tetrahydroindeno[7,1-bc]thiophen-5-yl)oxy)benzonitrile] | > 7.30 | > 7.30 | 6.60 to 7.30 |
| N#Cc1cc(F)cc(Oc2ccc3c4c2C(F)CC4(O)CS3(=O)=O)c1 (centres unmarked) [Compound 7] | < 6.00 | – | – |
| CC1CC2(O)c3c(ccc(Oc4cc(F)cc(C#N)c4)c31)S(=O)(=O)C2(F)F (centres unmarked) [Compound 8, 3-((2,2-difluoro-2a-hydroxy-4-methyl-1,1-dioxido-2,2a,3,4-tetrahydroindeno[7,1-bc]thiophen-5-yl)oxy)-5-fluorobenzonitrile] | 6.60 to 7.30 | 6.60 to 7.30 | – |
| C=C1CC2(O)c3c(ccc(Oc4cncc(F)c4)c31)S(=O)(=O)C2(F)F (centres unmarked) [Compound 9] | 6.00 to 6.60 | 6.00 to 6.60 | – |
| N#Cc1cc(F)cc(Oc2ccc3c4c2C(F)CC4(F)C(F)(F)S3(=O)=O)c1 (centres unmarked) [Compound 10, 3-fluoro-5-((2,2,2a,4-tetrafluoro-1,1-dioxido-2,2a,3,4-tetrahydroindeno[7,1-bc]thiophen-5-yl)oxy)benzonitrile] | 6.00 to 6.60 | – | – |
| N#Cc1cc(F)cc(Oc2ccc3c4c2C(=O)CC4(O)C(F)(F)S3(=O)=O)c1 (centres unmarked) [Compound 11, 3-((2,2-difluoro-2a-hydroxy-1,1-dioxido-4-oxo-2,2a,3,4-tetrahydroindeno[7,1-bc]thiophen-5-yl)oxy)-5-fluorobenzonitrile] | 6.00 to 6.60 | 6.00 to 6.60 | – |
| C=C1CC2(O)CS(=O)(=O)c3ccc(Oc4cc(F)cc(C#N)c4)c1c32 (centres unmarked) [Compound 12] | < 6.00 | – | – |
| C=C1CC2(O)c3c(ccc(Oc4cc(F)cc(C#N)c4)c31)S(=O)(=O)C2(F)F (centres unmarked) [Compound 13, 3-((2,2-difluoro-2a-hydroxy-4-methylene-1,1-dioxido-2,2a,3,4-tetrahydroindeno[7,1-bc]thiophen-5-yl)oxy)-5-fluorobenzonitrile] | > 7.30 | > 7.30 | > 7.30 |
| C=C1CC2(O)c3c(ccc(Oc4cncc(C#N)c4)c31)S(=O)(=O)C2(F)F (centres unmarked) [Compound 14] | > 7.30 | 6.00 to 6.60 | – |
| N#Cc1cc(F)cc(Oc2ccc3c4c2[C@@H](F)C[C@]4(O)C(F)(F)S3(=O)=O)c1 [Compound 15] | > 7.30 | > 7.30 | > 7.30 |
| N#Cc1cc(F)cc(Oc2ccc3c4c2C(F)C(F)C4(F)CS3(=O)=O)c1 (centres unmarked) [Compound 16] | < 6.00 | – | – |
| C=C1CC2(O)c3c(ccc(OCC(F)F)c31)S(=O)(=O)C2(F)F (centres unmarked) [Compound 17] | < 6.00 | – | – |
| N#Cc1cc(F)cc(Oc2ccc3c4c2CCC4C(F)(F)S3(=O)=O)c1 (centres unmarked) [Compound 18] | 6.60 to 7.30 | 6.00 to 6.60 | – |
| N#Cc1cncc(Oc2ccc3c4c2C(F)CC4(O)C(F)(F)S3(=O)=O)c1 (centres unmarked) [Compound 19] | 6.60 to 7.30 | 6.00 to 6.60 | – |
| N#Cc1cc(F)cc(Oc2ccc3c4c2C(F)C[C@@]4(O)C(F)(F)S3(=O)=O)c1 (some centres unmarked) [Compound 20] | < 6.00 | – | – |
